Measured values: US20090069315A1, “Use of Pyrazolo(1,5A)Pyrimidin-7-YL Amine Derivatives in the Treatment of Neurological Disorders” (priority 2006, published 2009)

Legend:
[1] = test system: embryonic cortical neurons; experiment: In vitro assay for neurite outgrowth/axon regeneration: E16 cortical neurons on astrocyte monolayers; format: cell-based; conditions: 100 nM; immunofluorescence images, FIG. 2A
Procedure: This assay is used to assess neurite outgrowth inhibition of embryonic cortical neurons by Eph receptors expressed on astrocytes or neurite outgrowth inhibition of post-natal cortical neurons by ephrin ligand present in myelin. E16 (embryonic day 16) cortical neurons are plated onto confluent astrocyte monolayers plated in 4-well chamber slides. Pharmacological inhibitors, are added to the medium and the length of longest neurite from each neuron is measured under each condition (FIG. 2A depicts an example of neurons plated in the presence of Compound 1 and visualized with the neuronal marker, Tuj-1) and compared to average neurite length on astrocytes in the absence of any pharmacological agents. FIG. 2B depicts the quantitation of neurite outgrowth effects observed with Compound 6 and Compound 7 (all tested at 100 nM concentration) in cortical cultures plated on astrocytes.

EphA4 [2] = target: T1, EphA4 (Mus musculus, UniProt Q03137); experiment: EphA4 autophosphorylation assay in primary astrocyte cultures (EphA4 immunoprecipitation, phospho-tyrosine Western); format: cell-based; parameters: Primary astrocyte cultures are established from neonatal mouse cortex; endogenous in cells; host or cells: primary astrocytes from neonatal mouse cortex; conditions: cells pre-treated with 100 nM; FIG. 1A
Procedure: FIG. 1A, lanes and 2 represent samples from cells treated with either control IgG-Fc or with the ligand ephrinB3-Fc. […] represent samples from cells that have been pre-treated with Compound 1 (100 nM) and are then stimulated with IgG-Fc or ephrinB3-Fc in the combined presence of the inhibitor (Compound I)(lanes 3, 4) or in its absence (lanes 5, 6). FIG. 1B, lanes 1 and 2 show EphA4 phosphorylation in control (untreated) and ephrinB3-Fc stimulated cells following serum starvation. All other lanes represent samples from cells stimulated with ephrinB3-Fc in the presence of varying concentrations (as indicated) of tested Eph inhibitors.
Primary astrocyte cultures are established from neonatal mouse cortex and purified so as to get about 95-98 pure astrocyte cultures. […] Cells are lysed, and the lysates subjected to EphA4 immunoprecipitation and subsequently analysed on Westerns for level of receptor phosphorylation using a phospho-tyrosine antibody.

EphA4 [3] = target: T1, EphA4; experiment: Proof of mechanism: EphA4 phosphorylation in mouse brain after dosing; format: in vivo; parameters: from tissue; host or cells: brain of male NMRI mice; conditions: male NMRI mice, 10 mg/kg; for crossing of the blood brain barrier: inferred from block of brain EphA4 phosphorylation; for EphA4 phosphorylation in vivo in mouse brain: i.v., sacrificed 25 minutes or 1 hour after dosing, FIG. 4
Procedure: Animals were given an i.v dose of relevant compound and sacrificed 25 minutes or 1 hour after dosing (0.25 h or 1 h), the brains removed and subjected to EphA4 immunoprecipitation followed by a phospho-tyrosine Western blot. Four animals were used as controls and three-animals each were used per time point for each drug. From top to bottom, the compounds tested were Compound 1, Compound 7, and Compound 6.
Male NMRI mice were injected with relevant compounds at a dose of 10 mg/kg body weight and were sacrificed either 25 minutes or 1 hour following the dosing (0.25 h or 1 h shown in FIG. 4). The brains were removed and one half of each brain was weighed and homogenized in appropriate volume of lysis buffer for 30 seconds (10 seconds pulse and 10 seconds off—3 times). The homogenate was spun at 12,000 g for 30 minutes. Protein amounts were estimated for supernatants (using BCA) and equal amounts of protein for each condition were subjected to EphA4 immunoprecipitation followed by a phospho-tyrosine western blot. Four control animals were used and three experimental animals per time point were used for each of the compounds tested (Compounds 1, 2, 6, and 7)

astrocytes = experiment: In vitro assay for astrogliosis: astrocyte scratch wound (cytokine-induced migration); format: cell-based, mouse; conditions: relative distance of cell migration compared to control; FIG. 3
Procedure: The white bar represents the addition of Compound 6. The black bar represents no compounds added.
Assay Astrocytes are prepared from the cerebral cortex of neonatal C57BL/6 mice (P1-P2). Cells are maintained in Dulbecco's modified Eagle's medium with 10% FBS. 4-7 weeks old astrocytes are plated to confluence in 2 well chamber slides coated with poly-D-lysine for the scratch wound assay and serum starved. 48 hrs after serum starvation, the monolayer of astrocytes is scratched with sterile 200 μl tips and washed twice with PBS to get rid of cell debris. Conditioned medium (+/−cytokines) is added to the wounded astrocytes. The microscopic images of the scratch is captured at a magnification of 10× right after scratch and considered as time point 0.24 hrs, 48 hrs or 72 hrs after scratch, the same region of scratch is imaged and fixed with methanol containing, 1 μg/ml of DAPI to monitor migration and proliferation of astrocytes.

T1 sequence (Q03137 20-986): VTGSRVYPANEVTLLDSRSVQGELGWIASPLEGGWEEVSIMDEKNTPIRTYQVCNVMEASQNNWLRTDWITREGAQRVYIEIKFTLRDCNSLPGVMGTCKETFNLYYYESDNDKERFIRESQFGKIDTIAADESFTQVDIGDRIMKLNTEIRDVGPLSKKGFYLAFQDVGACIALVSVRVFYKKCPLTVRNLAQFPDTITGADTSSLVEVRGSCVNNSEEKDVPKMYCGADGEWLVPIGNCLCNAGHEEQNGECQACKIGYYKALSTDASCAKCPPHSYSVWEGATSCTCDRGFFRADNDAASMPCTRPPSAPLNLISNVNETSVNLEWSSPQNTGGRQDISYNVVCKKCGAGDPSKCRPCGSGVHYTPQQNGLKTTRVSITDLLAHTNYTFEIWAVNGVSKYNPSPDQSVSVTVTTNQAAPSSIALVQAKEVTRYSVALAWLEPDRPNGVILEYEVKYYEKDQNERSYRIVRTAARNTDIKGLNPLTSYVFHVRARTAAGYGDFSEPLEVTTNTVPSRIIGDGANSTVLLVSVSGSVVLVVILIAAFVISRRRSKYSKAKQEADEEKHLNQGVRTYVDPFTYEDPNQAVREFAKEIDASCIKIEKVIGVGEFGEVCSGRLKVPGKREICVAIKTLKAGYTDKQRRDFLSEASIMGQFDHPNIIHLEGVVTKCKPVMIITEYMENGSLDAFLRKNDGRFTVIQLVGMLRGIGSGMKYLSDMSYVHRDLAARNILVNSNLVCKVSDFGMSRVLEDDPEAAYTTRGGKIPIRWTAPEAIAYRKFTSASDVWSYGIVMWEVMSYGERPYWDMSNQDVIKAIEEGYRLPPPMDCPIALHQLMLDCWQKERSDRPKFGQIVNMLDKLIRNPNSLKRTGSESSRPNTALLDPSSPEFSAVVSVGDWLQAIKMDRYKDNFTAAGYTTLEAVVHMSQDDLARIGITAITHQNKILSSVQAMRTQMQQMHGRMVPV

| Compound | melting point [°C] | further results |
| --- | --- | --- |
| CN1CCN(c2ccc(-c3cnn4c(N)c(-c5ccccc5Cl)cnc34)cc2)CC1 [Example 84, 6-(2-Chloro-phenyl)-3-[4-(4-methyl-piperazin-1-yl)-phenyl]-pyrazolo[1,5-a]-pyrimidin-7-ylamine] | 197 to 200 | – |
| COc1ccc(-c2cnn3c(N)c(-c4cccc(Cl)c4)c(C)nc23)cc1 [Example 95, 6-(3-Chloro-phenyl)-3-(4-methoxy-phenyl)-5-methyl-pyrazolo[1,5-a]pyrimidin-7-ylamine] | 171 to 172 | – |
| CCN(CC)C1CCN(c2cccc(-c3cnn4c(N)c(-c5cccc(Cl)c5)c(C)nc34)c2)CC1 [Compound 1, 6-(3-Chloro-phenyl)-3-[3-(4-diethylamino-piperidin-1-yl)-phenyl]-5-methyl-pyrazolo[1,5-a]pyrimidin-7-ylamine] | 163 to 168 | overcoming neurite outgrowth inhibition [1]: able to overcome neurite outgrowth inhibition; inhibition of EphA4 auto-phosphorylation (phospho-tyrosine Western blot) (EphA4 [2]): inhibition of EphA4 auto-phosphorylation; crossing of the blood brain barrier (EphA4 [3]): cross the blood brain barrier; EphA4 phosphorylation in vivo in mouse brain (EphA4 [3]): effectively block phosphorylation of EphA4 receptor in vivo |
| CN1CCN(c2cccc(-c3cnn4c(N)c(Cc5ccccc5)cnc34)c2)CC1 [Example 98, 6-Benzyl-3-[3-(4-methyl-piperazin-1-yl)-phenyl]-pyrazolo[1,5-a]pyrimidin-7-ylamine] | 72 to 75 | – |
| Cc1nc2c(-c3cccc(N4CCN(C5CCN(C)CC5)CC4)c3)cnn2c(N)c1-c1cccc(Cl)c1 [Compound 5, 6-(3-Chloro-phenyl)-5-methyl-3-{3-[4-(1-methyl-piperidin-4-yl)-piperazin-1-yl]-phenyl}-pyrazolo[1,5-a]pyrimidin-7-ylamine] | 180 to 185 | – |
| Cc1nc2c(-c3cccc(N4CCN(CCO)CC4)c3)cnn2c(N)c1-c1ccc(F)c(Cl)c1 [Compound 4, 2-(4-{3-[7-Amino-6-(3-chloro-4-fluoro-phenyl)-5-methyl-pyrazolo[1,5-a]pyrimidin-3-yl]-phenyl}-piperazin-1-yl)-ethanol] | 104 to 107 | – |
| CN(C)c1ccc(-c2cnn3c(N)c(-c4ccc(NS(=O)(=O)c5cccc(Cl)c5Cl)cc4)cnc23)cc1 [Example 17, N-{4-[7-Amino-3-(4-dimethylamino-phenyl)-pyrazolo[1,5-a]pyrimidin-6-yl]-phenyl}-2,3-dichloro-benzenesulfonamide] | 143 to 146 | – |
| CN1CCN(c2cccc(-c3cnn4c(N)c(-c5ccccc5Cl)cnc34)c2)CC1 [Example 85, 6-(2-Chloro-phenyl)-3-[3-(4-methyl-piperazin-1-yl)-phenyl]-pyrazolo[1,5-a]-pyrimidin-7-ylamine] | 200 to 203 | – |
| COc1ccc(-c2cnn3c(N)c(-c4cccc(Cl)c4)c(C)nc23)cc1OC [Compound 3, 6-(3-Chloro-phenyl)-3-(3,4-dimethoxy-phenyl)-5-methyl-pyrazolo[1,5-a]pyrimidin-7-ylamine] | 223 to 226 | – |
| Cc1nc2c(-c3cccc(N4CCN(C)CC4)c3)cnn2c(N)c1-c1cccc(Br)c1 [Example 91, 6-(3-Bromo-phenyl)-5-methyl-3-[3-(4-methyl-piperazin-1-yl)-phenyl]-pyrazol-o[1,5-a]pyrimidin-7-ylamine] | 107 to 113 | – |
| Cc1nc2c(-c3ccc(OCCN(C)C)cc3)cnn2c(N)c1-c1cccc(Cl)c1 [Compound 7, 6-(3-Chloro-phenyl)-3-[4-(2-dimethylamino-ethoxy)-phenyl]-5-methyl-1-pyrazolo[1,5-a]pyrimidin-7-ylamine] | – | crossing of the blood brain barrier (EphA4 [3]): cross the blood brain barrier; EphA4 phosphorylation in vivo in mouse brain (EphA4 [3]): effectively block phosphorylation of EphA4 receptor in vivo |
| CN(C)c1ccc(-c2cnn3c(N)c(-c4ccc(OS(=O)(=O)c5ccc(Cl)cc5)cc4)cnc23)cc1 [Example 18, 4-Chloro-benzenesulfonic acid 4-[7-amino-3-(4-dimethylamino-phenyl)-pyrazolo[1,5-a]pyrimidin-6-yl]-phenyl ester] | 186 to 191.88 | – |
| COc1ccc(-c2cnn3c(N)c(-c4cccc(Cl)c4)c(CN4CCNCC4)nc23)cc1OC [Compound 6, 6-(3-Chloro-7-phenyl)-3-(3,4-dimethoxy-phenyl)-5-piperazin-1-ylmethyl-pyrazolo[1,5-a]pyrimidin-7-ylamine] | – | crossing of the blood brain barrier (EphA4 [3]): cross the blood brain barrier; EphA4 phosphorylation in vivo in mouse brain (EphA4 [3]): effectively block phosphorylation of EphA4 receptor in vivo; astrocyte migration induced by cytokines (TGF-α, LIF, and IFN) (astrocytes): block astrocyte migration |

The next lines start with results.

| melting point [°C] | Compound | further results |
| --- | --- | --- |
| 224 to 227 | COc1ccc(-c2cnn3c(N)c(-c4ccc(F)c(Cl)c4)c(C)nc23)cc1 [Example 102, 6-(3-Chloro-4-fluoro-phenyl)-3-(4-methoxy-phenyl)-5-methyl-pyrazolo[1,5-a]-pyrimidin-7-ylamine] | – |
| 243 to 244 | COc1ccc(-c2cnn3c(N)c(-c4ccc(F)cc4)c(C)nc23)cc1 [Example 103, 6-(4-Fluoro-phenyl)-3-(4-methoxy-phenyl)-5-methyl-pyrazolo[1,5-a]pyrimidin-7-ylamine] | – |
| 228 to 230 | COc1ccc(-c2cnn3c(N)c(-c4cccc(Cl)c4)c(CF)nc23)cc1OC [Example 99, 6-(3-Chloro-phenyl)-3-(3,4-dimethoxy-phenyl)-5-fluoromethyl-pyrazolo[1,5-a]pyrimidin-7-ylamine] | – |
| 172 to 174 | Cc1nc2c(-c3cccc(N4CCN(CCO)CC4)c3)cnn2c(N)c1-c1ccc(F)c(F)c1 [Example 108, 2-(4-{3-[7-Amino-6-(3,4-difluoro-phenyl)-5-methyl-pyrazolo[1,5-a]pyrimidin-3-yl]-phenyl}-piperazin-1-yl)-ethanol] | – |
| 208 to 210 | CCN(CC)C1CCN(c2cccc(-c3cnn4c(N)c(-c5ccc(F)cc5)c(C)nc34)c2)CC1 [Example 112, 3-[3-(4-Diethylamino-piperidin-1-yl)-phenyl]-6-(4-fluoro-phenyl)-5-methyl-pyrazolo[1,5-a]pyrimidin-7-ylamine] | – |
| 235 to 238 | COc1ccc(-c2cnn3c(N)c(-c4ccc(F)c(Cl)c4)c(C)nc23)cc1OC [Example 101, 6-(3-Chloro-4-fluoro-phenyl)-3-(3,4-dimethoxy-phenyl)-5-methyl-pyrazolo[1,5-a]pyrimidin-7-ylamine] | – |
